Results on seven compounds are retold here after paper PMC10301432, “Antiplasmodial, Trypanocidal, and Genotoxicity In Vitro Assessment of New Hybrid α,α-Difluorophenylacetamide-statin Derivatives” (Pharmaceuticals, 2023).

A word on the EC50: it is the concentration that produces a half-maximal response. As usually defined, the EC90 is the concentration at which the effect reaches the 90% level. Usually CC50 stands for the concentration giving 50% cytotoxicity.

Molecules are shown by their SMILES. Counter-ions that a name gives are not always drawn. Like-named read-outs stand apart in the source and are kept apart here.

In data set [1] the test system is trypomastigote forms of T. cruzi (Y strain). Put plainly: Trypanocidal activity on bloodstream trypomastigotes. Format: cell-based, Trypanosoma cruzi. Particulars: for EC50: Trypanosoma cruzi, bloodstream trypomastigotes, Y strain, 24 h at 37 °C. As for the experimental part: (§1) Bloodstream trypomastigote forms (BT) of the Y strain were obtained from infected albino Swiss mice at the peak of parasitemia, isolated by differential centrifugation and resuspended in DMEM to a parasite concentration of 10^7 cells/mL in the presence of 10% of mouse blood. This suspension (100 µL) was added in the same volume of 13 (a–d) and 14 (a–d) previously prepared at twice the desired final concentrations.

The subject of data set [2] is intracellular forms of T. cruzi (Tulahuen strain transfected with β-galactosidase). Put plainly: Activity against intracellular T. cruzi in L929 cells. It is filed as cell-based, Trypanosoma cruzi. The following applies: for EC50: Trypanosoma cruzi, L929, intracellular forms, Tulahuen strain, read-out: EC50; for EC50 / 10µM (% of Parasite Lysis): 96 h; for 10µM (% of Parasite Lysis): fixed concentration 10 µM. The method, then: Tissue culture-derived trypomastigotes (Tulahuen strain expressing the E. coli β-galactosidase gene) were maintained in L929 cell lines and collected from the supernatant after 96 h of parasite infection, following previously established protocols. Briefly, after 24 h of L929 platting (4 × 10^3 cells/well), the cultures were incubated with trypomastigotes (10:1 parasite/host cell ratio) for 2 h at 37 °C. Then, the cell cultures were rinsed to remove non-internalized parasites and then further incubated for 24 h at 37 °C. Then the infected cultures were followed using two sequential protocols. […] After this period, 50 µL chlorophenol red glycoside (500 µM) in 0.5% Nonidet P40 was added to each well and the plate was incubated for more than 18 h at 37 °C, after which the absorbance was measured at 570 nm. […] Controls with untreated and Bz-treated cells are run in parallel. The results were expressed as the percent difference in the reduction between treated and untreated cells.

The next data set has as its system HepG2 cells. Briefly: In vitro micronuclei assay, HepG2. It is filed as cell-based, human. The following applies: human, 3 h. The method, then:
Fresh HepG2 and CHO-K1 cells were seeded at the density of 1 × 10^5 cells/mL into 24-well plates (1 mL/per well). The compounds 13 (a–d) were then added to the medium to final concentrations of 500, 1000 and 2000 µM and incubation continued for 3 h or 24 h. DMSO 10% was used as the negative control, and, BaP (80 µM) for HepG2 and MMC (5 µM) for CHO-K1 were the positive controls. After exposure to the compounds, the cells were incubated for more than 24 h under growth conditions before quantification of the micronuclei and cytotoxicity. The cytogenetic studies were carried out in triplicate as described previously (see [51]). In order to determine the mitotic index and the number of cells with micronuclei, the medium was replaced by a cold methanol-glacial acetic acid (3:1) fixative for 30 min, and the cells then rinsed with distilled water for 2 min and air dried. The fixed cells were stained with 4,6-diamidino-2-phenylindole (DAPI) ([…]) dissolved in McIlvaine buffer (0.1 M citric acid plus 0.2 M Na2HPO4, pH 7.0) for 60 min, washed with McIlvaine buffer for 5 min, briefly rinsed with distilled water and mounted in glycerol. To determine the mitotic index and the number of cells with micronuclei, 1000 cells per well (3000 cells per concentration) were analyzed under a fluorescence microscope. The results for micronuclei were presented as the percentage of cells containing micronuclei in the 3000 cells/concentration group analyzed. Cells that glowed brightly and had homogenous nuclei were considered as having normal phenotypic morphology. Apoptotic nuclei were identified by the condensed chromatin at the periphery of the nuclear membrane or by fragmented nuclear body morphology. Necrotic cells presented chromatin forms with irregularly shaped aggregates, a pyknotic nucleus (shrunken and darkly stained) and cell membrane disruption, with cellular debris spilled into the extracellular milieu. Once again, 3000 cells were counted and the percentage of viable cells was evaluated, discounting apoptotic and necrotic cells. Statistical differences between the groups were analyzed by two-way ANOVA (p < 0.01) and Tukey’s post hoc test.

The test system of data set [3] is P. falciparum parasites (W2 clone) chloroquine-resistant. Put plainly: Antiplasmodial activity, anti-HRPII assay. Format: cell-based, Plasmodium falciparum. The following applies: for EC50: Plasmodium falciparum, W2, 24 h; for SI: LC50 (HepG2)/EC50 (P. falciparum); for Antiplasmodial Activity: summarized outcome. An excerpt: P. falciparum W2 clone was maintained in continuous culture as previously described. […] Prior to testing, the ring-stage parasites were synchronized using sorbitol.
The test quantification was read at 450 nm on a spectrophotometer (SpectraMax340PC384, Molecular Devices Sunnyvale, CA, USA), and the drug activity was expressed as the half-maximal inhibitory concentration (EC50) compared to the drug-free controls using the curve-fitting software Origin 8.0 (OriginLab Corporation, Northampton, MA, USA).

The test system of data set [4] is intracellular forms of T. cruzi (Tulahuen strain transfected with β-galactosidase). Further details: method as in PMID 24590476. Particulars: read-out: EC90 value of Bz against intracellular forms of T. cruzi; cited from earlier work.
Data set [5] in a line: in vitro. The following applies: mouse. Format: cell-based. The method, then:
Primary cultures of cardiac cells (CC) were obtained as reported in [50]. The cultures were sustained in Dulbecco’s modified Eagle’s medium (DMEM) supplemented with 10% horse serum, 5% fetal bovine serum (FBS), 2.5 mM CaCl2, 1 mM L-glutamine, and 2% chicken embryo extract. Cell cultures were maintained at 37 °C in an atmosphere of 5% CO2, and assays were run at least three times in triplicate.
(§2) Cardiac cell cultures were incubated for 24 h at 37 °C with different concentrations of the compounds (up to 200 µM) diluted in DMEM (without phenol red). Their morphology and spontaneous contractibility were evaluated by light microscopy and then the cellular viability was determined by the PrestoBlue® assay. For this colorimetric bioassay, PrestoBlue® (Invitrogen, Waltham, MA, USA) was added to each well (using a 10:1 medium/dye), the plate was further incubated for 24 h followed by optical density (OD) measurement performed at 570 and 600 nm, as recommended by the manufacturer.

The nature of data set [6]: in vitro. It is filed as cell-based. The following applies: mouse. As for the experimental part: as §2
The source holds these as a separate data set.

A further data set has as its system T. cruzi. Briefly: Trypanocidal in vitro phenotypic screening, overall outcome. Particulars: summarized outcome. Format: cell-based, Trypanosoma cruzi. The method, then: as §1
Tissue culture-derived trypomastigotes (Tulahuen strain expressing the E. coli β-galactosidase gene) were maintained in L929 cell lines and collected from the supernatant after 96 h of parasite infection, following previously established protocols. Briefly, after 24 h of L929 platting (4 × 10^3 cells/well), the cultures were incubated with trypomastigotes (10:1 parasite/host cell ratio) for 2 h at 37 °C. Then, the cell cultures were rinsed to remove non-internalized parasites and then further incubated for 24 h at 37 °C. Then the infected cultures were followed using two sequential protocols. […] After this period, 50 µL chlorophenol red glycoside (500 µM) in 0.5% Nonidet P40 was added to each well and the plate was incubated for more than 18 h at 37 °C, after which the absorbance was measured at 570 nm. Then, the compounds were next evaluated using dose–response assays in which Tulahuen-infected-L929 cells were exposed to different non-toxic concentrations of each compound (0–50 µM) and then after 96 h of incubation the same procedure was conducted as above reported. Controls with untreated and Bz-treated cells are run in parallel. The results were expressed as the percent difference in the reduction between treated and untreated cells.

Data set [7] is described as follows: in vitro. It is filed as cell-based. The following applies: human. The method, then: Human hepatocellular carcinoma (HepG2) and Chinese Hamster Ovary (CHO-K1) cells obtained from the American Type Culture Collection (Manassas, VA, USA) were cultured in Eagle’s medium (MEM, Gibco®, Waltham, MA, USA) containing 10% fetal bovine serum (FBS) plus 100 µg/mL streptomycin and 100 µg/mL penicillin at 37 °C in a 5% CO2 atmosphere. Logarithmic-phase cells were used in all the experiments.
Fresh HepG2 and CHO-K1 cells were seeded at a density of 1 × 10^4/well. […] Briefly, after treatment, the culture medium was replaced by 90 μL fresh culture medium and 10 μL WST-1 reagent and incubated at 37 °C and 5% CO2 for 3 h. The absorbance was then measured at 440 nm according to the kit protocol.

The mark [8] stands for this setting: P. falciparum W2 clone, 24 h at 37 °C, read-out: EC50.

As to `CC(C)c1c(C(=O)Nc2ccccc2)c(-c2ccccc2)c(-c2ccc(F)cc2)n1CC[C@@H](O)C[C@@H](O)CC(=O)O` [AVA, atorvastatin, reference compound], the EC50 is 7.07 ± 1.78 µM in data set [1], 45.3 ± 3.06 µM in data set [2] and 10.3 ± 1.2 µM in [3] (setting [8]). For the same compound, the “10µM (% of Parasite Lysis)” value in data set [2] is reported as 31.73 ± 5.80%. The “cytotoxicity (survival rate) in micronuclei assay” value in the data set with HepG2 cells was “significant cytotoxic effects upon 1000 µM”.
Regarding `O=C(Cn1ccnc1[N+](=O)[O-])NCc1ccccc1` [Benznidazole, benznidazole, reference compound], in [4], the EC90 is 10 µM. For the same compound, the SI in data set [1] (LC50 (cardiac cells)/EC50 (trypomastigotes)) is on record as more than 77; in [2] (LC50 (L929)/EC50 (intracellular forms)), 92.4. Besides, the EC50 in [1] was 13 ± 2 µM; in data set [2], 1.83 ± 0.73 µM. Also, the CC50 at 24 h in “in vitro [5]” is more than 1000 µM. The “10µM (% of Parasite Lysis)” value in data set [2] is given as 87.84 ± 7.08%. This compound yielded a CC50 at 96 h in the data set “in vitro [6]” of 169 ± 27.2 µM.
With `CCN(CC)CCCC(C)Nc1ccnc2cc(Cl)ccc12` (stereo not drawn) [Chloroquine, chloroquine, reference compound], the EC50 in data set [3] was 0.59 ± 0.03 µM.
Take `CC(=O)Nc1ccccc1C(F)(F)C(=O)NCC[C@@H](O)C[C@@H](O)CC(=O)O` [Compound 14a, Sodium (3R,5R)-7-(2-(2-acetamido-phenyl)-2,2-difluoroacetamide)-3,5-dihydroxyheptanoate salt]: the “Trypanocidal Activity” value in the data set with T. cruzi is listed as “No”. For the same compound, the EC50 was more than 500 µM in [1] and more than 122 µM in [3] (setting [8]). In addition, the CC50 at 24 h was more than 500 µM in the data set “in vitro [5]” and more than 488 µM in the data set “in vitro [7]”. The SI entry in [3] is on record as “Inactive”. Moreover, the “Antiplasmodial Activity” value in data set [3] is “No”.
With `CC(=O)Nc1ccc(C)cc1C(F)(F)C(=O)NCC[C@@H](O)C[C@@H](O)CC(=O)O` [Compound 14b, Sodium (3R,5R)-7-(2-(2-acetamido-5-methylphenyl)-2,2-difluoroacetamide)-3,5-dihydroxyheptanoate salt], in the data set on T. cruzi, the “Trypanocidal Activity” value is recorded as “No”. The EC50 in [1] is more than 500 µM; in data set [3] (setting [8]) it was more than 118 µM. The CC50 at 24 h in the data set “in vitro [5]” is more than 500 µM; in “in vitro [7]” it was more than 472 µM. The SI result in data set [3] is listed as “Inactive”. Also, the “Antiplasmodial Activity” value in data set [3] is on record as “No”.
Regarding `CC(=O)Nc1ccc(Cl)cc1C(F)(F)C(=O)NCC[C@@H](O)C[C@@H](O)CC(=O)O` [Compound 14c, Sodium (3R,5R)-7-(2-(2-acetamido-5-chlorophenyl)-2,2-difluoroacetamide)-3,5-dihydroxyheptanoate salt], in the data set with T. cruzi, the “Trypanocidal Activity” value is on record as “No”. Also, the EC50 is more than 500 µM in data set [1] and more than 112 µM in data set [3] (setting [8]). Also, the CC50 at 24 h was more than 500 µM in the data set “in vitro [5]” and more than 450 µM in the data set “in vitro [7]”. Moreover, the SI result in data set [3] is “Inactive”. For the same compound, the “Antiplasmodial Activity” value in data set [3] is “No”.
Take `CC(=O)Nc1ccc(Br)cc1C(F)(F)C(=O)NCC[C@@H](O)C[C@@H](O)CC(=O)O` [Compound 14d, Sodium (3R,5R)-7-(2-(2-acetamido-5-bromophenyl)-2,2-difluoroacetamide)-3,5-dihydroxyheptanoate salt]: the “Trypanocidal Activity” value with T. cruzi was “No”. The values for the EC50 in data set [1] and in data set [3] (setting [8]) were more than 500 µM and more than 102 µM, respectively. Also, the CC50 at 24 h in “in vitro [5]” is more than 500 µM; in “in vitro [7]” it was more than 409 µM. For the same compound, the SI entry in data set [3] is given as “Inactive”. In addition, the “Antiplasmodial Activity” value in data set [3] was “No”.
